# Values of other authors, collected in patent US20070043121A1 (priority 2003, published 2007).
# What was measured:
# [1] = water
# [2] = test system: sodium channel (3H-batrachotoxin)
smiles,measurement,setting,value
"CC(C)c1cccc(C(C)C)c1O [Propofal, 2,6-diisopropylphenol]",aqueous solubility,[1],very water insoluble
same,IC50,[2],26 µM
